Molecules are shown by their SMILES.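 These data come from cells grown in 96-well plates and exposed to compound for 48 hours at five concentrations. Abbreviation: GI50, concentration required for 50% inhibition of growth. TGI: total growth inhibition.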

Assay in all cases: NCI tumour cell line growth inhibition, 48 h
The subject of assay [1] is SF-268 CNS.
The subject of assay [2] is RXF 393 renal.
The subject of assay [3] is OVCAR-4 ovarian.
Assay [4] has as its system SK-OV-3 ovarian.
Assay [5] relates to UO-31 renal.
Assay [6] concerns OVCAR-8 ovarian.
In assay [7] the test system is CAKI-1 renal.
Assay [8] deals with K-562 leukemia.
Assay [9] relates to CCRF-CEM leukemia.
The subject of assay [10] is SF-295 CNS.

As to `O=C(O)Cc1ccc([N+](=O)[O-])cc1[N+](=O)[O-]`, the TGI in [1], in [2], in [3], in assay [4], in [5] and in [6] was above 100 µM in each case. The TGI in [7], in assay [8], in [9] and in [10] was above 100 µM in each case.
Turning to `CON(C)C(=O)C(Cc1ccccc1)NC(=O)OCc1ccccc1` (configuration not stated), the TGI in assay [1], in [2], in assay [3], in [4], in assay [5] and in [6] was above 100 µM each time. In addition, the TGI in assay [7], in assay [8], in assay [9] and in assay [10] was above 100 µM each time.
Consider `O=C1/C(=C\c2ccc(Cl)cc2Cl)Sc2scc(-c3ccc(O)c(O)c3)[n+]21`, for which the TGI in assay [1] was above 100 µM; in assay [2] it was 37.1 µM; in [3] it was 35.8 µM; in assay [4], 39.2 µM; in assay [5], 26.8 µM; in assay [6], 35.2 µM. For the same molecule, the TGI in assay [7] was determined as 43.4 µM; in assay [9], 39.4 µM; in [10] it was 49.2 µM.
On to `Cc1ccc(C(=O)OC(C(=O)O)C(OC(=O)c2ccc(C)cc2)C(=O)O)cc1` (configuration not stated) (tested in a mixture with another compound), for which the TGI turned out to be 28.3 µM in assay [1]; 16 µM in assay [2]; 21.6 µM in assay [3]; 28.2 µM in assay [4]; 14.5 µM in assay [5]; 31.6 µM in [6]. Further, the TGI in assay [7] turned out to be 21.2 µM; in assay [8] it was 7.87 µM; in assay [9], 17 µM; in assay [10], 16.7 µM.
In the case of `O=C(C(=O)n1ccc2ccccc21)n1ccc2ccccc21`, the TGI was above 100 µM in assay [1]; above 100 µM in assay [2]; 78 µM in assay [3]; above 100 µM in [4]; above 100 µM in assay [5]; above 100 µM in [6]. Also, the TGI in assay [7], in [8], in assay [9] and in [10] was above 100 µM throughout.
As to `CC(N)/C(N)=N/O` (configuration not stated), the TGI in assay [1], in assay [2], in [3], in assay [4], in assay [5] and in assay [6] was above 100 µM throughout. Also, the TGI in assay [7], in [8], in assay [9] and in assay [10] was above 100 µM throughout.
In the case of `O=[N+]([O-])c1ccc2nc(Nc3ccccc3)c(Nc3ccccc3)nc2c1`, the TGI in assay [1] stood at 7.91 µM; in [2], 6.6 µM; in assay [3], 11.3 µM; in [4], 2.88 µM; in [5], 2.57 µM; in assay [6] it was 6.45 µM. Moreover, the TGI in [7] was 11.2 µM; in assay [8], above 100 µM; in assay [9], above 100 µM; in [10], 2.4 µM.
As for `COc1ccc(C(SCCO)(c2ccccc2)c2ccc(OC)cc2)cc1`, the TGI was determined as 26.8 µM in assay [1]; 17.7 µM in assay [2]; 49.1 µM in assay [3]; 35.4 µM in [4]; 31.7 µM in assay [5]; 43 µM in assay [6]. Besides, the TGI was 40.6 µM in assay [7], above 72.9 µM in [8], 40.7 µM in [9] and 19 µM in assay [10].
Take `C[C@]12c3c4cc(NC(=O)C(=O)NCc5ccc(-c6ccccn6)nc5)cc3Oc3cc(NC(=O)C(=O)NCc5ccc(-c6ccccn6)nc5)cc(c31)OC1C=C(NC(=O)C(=O)NCc3ccc(-c5ccccn5)nc3)C=C(O4)C12` (some centres not stated): the TGI was above 100 µM in [1]; above 100 µM in assay [2]; 29.8 µM in assay [3]; above 100 µM in assay [4]; 68.6 µM in assay [5]; above 100 µM in assay [6]. Moreover, the TGI in [7] is 93.4 µM; in assay [8] it was above 100 µM; in assay [9], above 100 µM; in [10] it was above 100 µM.
Regarding `C=C1C(=O)O[C@@H]2/C=C(C)/C=C\[C@@H]3O[C@@]3(C)C[C@@H](O)C12` (some centres not stated), the TGI in [1] was 84.7 µM; in assay [2] it was 76.4 µM; in assay [3] it was 38.2 µM; in assay [4], above 100 µM; in assay [5], 30.1 µM; in assay [6], 55.1 µM. For the same molecule, the TGI in assay [7] is 21 µM; in [8], 20.6 µM; in [9] it was 4.93 µM; in assay [10], above 100 µM.
Regarding `O=S(=O)(O)c1cc(N=Nc2c(O)ccc3ccccc23)cc2c(S(=O)(=O)O)cccc12`, the TGI in assay [1], in assay [2], in assay [3], in assay [4], in assay [5] and in assay [6] was above 100 µM throughout. The TGI in [7], in [8], in [9] and in assay [10] was above 100 µM in each case.
As for `CCOC(=O)c1cn2c(n1)sc1cc(F)ccc12`, the TGI in [1], in assay [2], in assay [3], in assay [4], in assay [5] and in assay [6] was above 100 µM throughout. Also, the TGI in assay [7], in assay [8], in assay [9] and in assay [10] was above 100 µM each time.
As for `COc1cccc(-c2cc(=O)c3cc(N4CCCCC4)ccc3[nH]2)c1`, the TGI in [1] is above 100 µM; in [2], 1.62 µM; in assay [3] it was above 57.9 µM; in [4], above 100 µM; in assay [5], above 100 µM; in assay [6] it was above 100 µM. Also, the TGI in assay [7], in assay [8] and in [9] was above 100 µM each time.
`CC(=O)CC1CCC(=O)/C=C/C(=O)OC(CC(C)=O)CCC(=O)/C=C/C(=O)O1` (configuration not stated): the TGI was found to be 74 µM in [1]; 8.55 µM in assay [2]; 25.4 µM in [3]; 36.1 µM in assay [4]; 26.9 µM in [5]; 53.5 µM in assay [6]. The TGI in [7] was 20 µM; in assay [8] it was above 20.9 µM; in assay [9], above 100 µM; in [10] it was 18.4 µM.
On to `Oc1ccc(NCn2c(=S)sc3ccccc32)cc1`, for which the TGI in assay [1], in assay [2], in assay [3], in [4], in [5] and in [6] was above 100 µM throughout. The TGI in [7] was above 100 µM; in assay [8], above 100 µM; in assay [9], 92 µM; in assay [10], above 100 µM.
On to `C[N+]12C=CC=C1C(N1CCCC1)c1scc(-c3ccc(Br)cc3)c12` (configuration not stated), for which the TGI in [1] was 37 µM; in assay [2] it was 43.5 µM; in assay [3], above 100 µM; in assay [4] it was above 100 µM; in assay [5] it was above 100 µM; in assay [6], above 100 µM. Also, the TGI in assay [7] was above 100 µM; in [8], above 89.9 µM; in assay [9], 58.9 µM; in assay [10], above 100 µM.
Turning to `O=c1c(F)cn(Cc2c(Cl)cccc2Cl)c(=O)n1Cc1c(Cl)cccc1Cl`, the TGI in [1], in assay [2], in [3], in assay [4], in assay [5] and in [6] was above 31.6 µM each time. In addition, the TGI in [7], in assay [8], in [9] and in assay [10] was above 31.6 µM each time.
As for `COc1ccc(C2c3cc4c(cc3OC3(OC)COC(=O)C23)OCO4)c(OC)c1` (configuration not stated), the TGI in [1] is above 100 µM; in [2] it was 35.4 µM; in assay [3], above 100 µM; in assay [4], above 86 µM; in assay [5], above 100 µM; in assay [6], above 100 µM. In addition, the TGI in [7] is above 100 µM; in assay [8], 34.4 µM; in assay [9], above 46.8 µM; in assay [10], 98.9 µM.
For `COCOC1/C=C/CCCCC(=O)C(C)C#CC1` (configuration not stated), the TGI in assay [1] worked out at 35.1 µM; in assay [2] it was 9.19 µM; in assay [3], 24.4 µM; in assay [4] it was 32.3 µM; in assay [5] it was 18.9 µM; in [6], 17.7 µM. Besides, the TGI came out at 13.7 µM in assay [7], 7.66 µM in assay [8], 5.81 µM in assay [9] and 31.3 µM in [10].
Turning to `C=C1c2nc3ccccc3n2C=C(c2ccc(OC)cc2)N1c1ccc(OC)cc1`, the TGI in [2] was 29.8 µM; in assay [3], above 100 µM; in assay [4], 63.4 µM; in [5] it was 58.5 µM; in [6], 24.4 µM; in assay [7] it was 19.3 µM. Moreover, the TGI in assay [8] was above 100 µM; in assay [9] it was above 100 µM; in assay [10] it was 32.6 µM.
As for `O=C1NC2(CCN(CCc3ccccc3)CC2)Oc2ccccc21`, the TGI in assay [1], in assay [2], in [3], in assay [4], in assay [5] and in assay [6] was above 100 µM in each case. Further, the TGI in assay [7], in [8], in assay [9] and in assay [10] was above 100 µM throughout.
`CCCCCCc1cc2cc(-c3cn4ccsc4n3)c(=O)oc2cc1O`: the TGI in [1] is above 89.7 µM; in assay [2], above 94.8 µM; in assay [3] it was above 100 µM; in assay [4] it was above 100 µM; in assay [5] it was above 100 µM; in assay [6], above 71.8 µM. The TGI in [7] is above 95.9 µM; in assay [8], above 100 µM; in [9], above 100 µM; in assay [10] it was above 100 µM.
As for `Cc1ccc(S(=O)(=O)N2C3C=CC(C3)[C@@H]2C(Cl)(Cl)Cl)cc1` (some centres not stated), the TGI in [1] was 46.9 µM; in assay [2], 41.4 µM; in assay [3], above 77.1 µM; in assay [4], above 100 µM; in assay [5] it was 59.3 µM; in assay [6], above 63.3 µM. Further, the TGI is above 68.5 µM in [7], above 100 µM in [8], 71.2 µM in [9] and 35.1 µM in assay [10]. The GI50 in assay [2] is 19.2 µM; in [4] it was 39.2 µM; in assay [8], 28.5 µM.
Take `COc1ccc2oc3c(C)cc4c(OC)nnc(OC)c4c3c2c1`: the TGI in assay [1], in assay [2], in assay [3], in [4], in assay [5] and in assay [6] was above 100 µM in each case. The TGI in [7], in assay [8], in assay [9] and in assay [10] was above 100 µM in each case.
In the case of `CC1=C/C(=N\NC(N)=S)C(C(O)(C(F)(F)F)C(F)(F)F)C(C)(C)C1` (configuration not stated), the TGI in [1], in assay [2], in [3], in [4], in assay [6] and in assay [7] was above 10 µM each time. In addition, the TGI in assay [8], in assay [9] and in assay [10] was above 10 µM in each case.
With `Nc1ncc2c(n1)-c1ccccc1OC2N1CCCCC1` (configuration not stated), the TGI in assay [1], in [2], in assay [3], in assay [4], in [5] and in assay [6] was above 100 µM throughout. The TGI in assay [7], in assay [9] and in [10] was above 100 µM throughout.
Take `NC(Cc1ccccc1)C(=O)NC(Cc1ccccc1)NC(=O)C(Cc1c[nH]c2ccccc12)C(=O)O` (configuration not stated): the TGI in assay [1], in [2], in [3], in assay [4], in assay [5] and in assay [6] was above 100 µM throughout. The TGI in assay [7], in [9] and in [10] was above 100 µM throughout.

The values are drawn from PubChem BioAssay (NCI).
